Reference: US9445594B2, “Molecules having certain pesticidal utilities, intermediates, compositions, and processes, related thereto” (priority 2014, dated 2016)

What was measured:
Format in all cases: in vivo
[1] = test system: Beet Armyworm (Spodoptera exigua, LAPHEG) ("BAW"); assay: Bioassays on BAW, 128-well diet tray assay; conditions: 168 h, second instar larvae, 50 μg/cm^2 on artificial diet, 25° C., five to seven days, average of eight wells, read-out: BAW % Control (or Mortality) rating
Procedure: (§1) Certain molecules disclosed in this document were tested against BAW, CEW, and CL using procedures described in the following examples. In the reporting of the results, the “BAW, CEW, & CL Rating Table” was used (See Table Section).
Bioassays on BAW were conducted using a 128-well diet tray assay. one to five second instar BAW larvae were placed in each well (3 mL) of the diet tray that had been previously filled with 1 mL of artificial diet to which 50 μg/cm^2 of the test compound (dissolved in 50 μL of 90:10 acetone-water mixture) had been applied (to each of eight wells) and then allowed to dry. Trays were covered with a clear self-adhesive cover and held at 25° C., 14:10 light-dark for five to seven days. Percent mortality was recorded for the larvae in each well; activity in the eight wells was then averaged. The results are indicated in the table entitled “Table ABC: Biological Results” (See Table Section).

[2] = test system: Cabbage Looper (Trichoplusia ni, TRIPNI) ("CL"); assay: Bioassays on CL, 128-well diet tray assay; conditions: 168 h, second instar larvae, 50 μg/cm^2 on artificial diet, 25° C., five to seven days, average of eight wells, read-out: CL % Control (or Mortality) rating
Procedure: as §1
Bioassays on CL were conducted using a 128-well diet tray assay. one to five second instar CL larvae were placed in each well (3 mL) of the diet tray that had been previously filled with 1 mL of artificial diet to which 50 μg/cm^2 of the test compound (dissolved in 50 μL of 90:10 acetone-water mixture) had been applied (to each of eight wells) and then allowed to dry. Trays were covered with a clear self-adhesive cover and held at 25° C., 14:10 light-dark for five to seven days. Percent mortality was recorded for the larvae in each well; activity in the eight wells was then averaged. The results are indicated in the table entitled “Table ABC: Biological Results” (See Table Section).

[3] = test system: Yellow Fever Mosquito (Aedes aegypti, AEDSAE) ("YFM"); assay: Bioassays on YFM, 96-well plate larval assay; conditions: about 1 day-old larvae, from 4000 ppm DMSO master plate diluted, room temperature, scored after 3 days
Procedure: Certain molecules disclosed in this document were tested against YFM using procedures described in the following paragraph. In the reporting of the results, the “YFM Rating Table” was used (See Table Section).
Master plates containing 400 μg of a molecule dissolved in 100 μL of dimethyl sulfoxide (DMSO) (equivalent to a 4000 ppm solution) are used. A master plate of assembled molecules contains 15 μL per well. To this plate, 135 μL of a 90:10 water:acetone mixture is added to each well. A robot (Biomek® NXP Laboratory Automation Workstation) is programmed to dispense 15 μL aspirations from the master plate into an empty 96-well shallow plate (“daughter” plate). There are 6 reps (“daughter” plates) created per master. The created daughter plates are then immediately infested with YFM larvae.
The day before plates are to be treated, mosquito eggs are placed in Millipore water containing liver powder to begin hatching (4 g. into 400 mL). After the daughter plates are created using the robot, they are infested with 220 μL of the liver powder/larval mosquito mixture (about 1 day-old larvae). After plates are infested with mosquito larvae, a non-evaporative lid is used to cover the plate to reduce drying. Plates are held at room temperature for 3 days prior to grading. After 3 days, each well is observed and scored based on mortality.

## O=C(Nc1ccc(-c2ncn(-c3ccc(OC(F)(F)C(F)(F)F)cc3)n2)cc1)Nc1ccccc1OC(F)(F)F [F1, 1-(4-(1-(4-(Perfluoroethoxy)phenyl)-1H-1,2,4-triazol-3-yl)phenyl)-3-(2-(trifluoromethoxy)phenyl)urea]
[1]
  mortality at 50 µg/cm2: 0%
[2]
  mortality at 50 µg/cm2: 50 to 100%
[3]
  YFM % Control (or Mortality) rating: D (No activity noticed in this bioassay)

## O=C(Nc1ccc(-c2ncn(-c3ccc(OC(F)(F)F)cc3)n2)cc1)Nc1ccccc1-c1cc(F)c(F)c(F)c1 [F9, 1-(3′,4′,5′-Trifluoro-[1,1′-biphenyl]-2-yl)-3-(4-(1-(4-(trifluoromethoxy)phenyl)-1H-1,2,4-triazol-3-yl)phenyl)urea]
[1]
  mortality at 50 µg/cm2: 50 to 100%
[2]
  mortality at 50 µg/cm2: 50 to 100%
[3]
  YFM % Control (or Mortality) rating: D (No activity noticed in this bioassay)

## O=C(Nc1ccc(-c2ncn(-c3ccc(OC(F)(F)F)cc3)n2)cc1)Nc1ccccc1-n1cccc1 [F13, 1-(2-(1H-pyrrol-1-yl)phenyl)-3-(4-(1-(4-(trifluoromethoxy)phenyl)-1H-1,2,4-triazol-3-yl)phenyl)urea]
[1]
  mortality at 50 µg/cm2: 50 to 100%
[2]
  mortality at 50 µg/cm2: 50 to 100%

## O=C(Nc1ccc(-c2ncn(-c3ccc(OC(F)(F)C(F)(F)F)cc3)n2)cc1)Nc1ccccc1C1CC1 [F15, 1-(2-Cyclopropylphenyl)-3-(4-(1-(4-(perfluoroethoxy)phenyl)-1H-1,2,4-triazol-3-yl)phenyl)urea]
[1]
  mortality at 50 µg/cm2: 50 to 100%
[2]
  mortality at 50 µg/cm2: 50 to 100%
[3]
  YFM % Control (or Mortality) rating: B (More than 0 - Less than 80)

## Cc1ccccc1N(C(=O)Nc1ccc(-c2ncn(-c3ccc(OC(F)(F)F)cc3)n2)cc1)C(N)=S [F19, N-(2-methylphenyl)-N-(4-{1-[4-(trifluoromethoxy)phenyl]-1H-1,2,4-triazol-3-yl}phenyl)dicarbonimidothioic diamide]
[1]
  mortality at 50 µg/cm2: 50 to 100%
[2]
  mortality at 50 µg/cm2: 50 to 100%

## Cc1ccccc1-c1cccnc1NC(=O)Nc1ccc(-c2ncn(-c3ccc(OC(F)(F)F)cc3)n2)cc1 [F24, 1-(3-(o-Tolyl)pyridin-2-yl)-3-(4-(1-(4-(trifluoromethoxy)phenyl)-1H-1,2,4-triazol-3-yl)phenyl)urea]
[1]
  mortality at 50 µg/cm2: 50 to 100%
[2]
  mortality at 50 µg/cm2: 50 to 100%

## O=C(Nc1ccc(-c2ncn(-c3ccc(OC(F)(F)F)cc3)n2)cc1)Nc1ccccc1OC(F)(F)F [F26, 1-(2-(Trifluoromethoxy)phenyl)-3-(4-(1-(4-(trifluoromethoxy)phenyl)-1H-1,2,4-triazol-3-yl)phenyl)urea]
[1]
  mortality at 50 µg/cm2: 50 to 100%
[2]
  mortality at 50 µg/cm2: 50 to 100%
[3]
  YFM % Control (or Mortality) rating: D (No activity noticed in this bioassay)

## O=C(Nc1ccc(-c2ncn(-c3ccc(OC(F)(F)F)cc3)n2)cc1)Nc1ncccc1-c1ccccc1 [F32, 1-(3-Phenylpyridin-2-yl)-3-(4-(1-(4-(trifluoromethoxy)phenyl)-1H-1,2,4-triazol-3-yl)phenyl)urea]
[3]
  YFM % Control (or Mortality) rating: B (More than 0 - Less than 80)

## CC(C)c1ccccc1NC(=O)Nc1ccc(-c2ncn(-c3ccc(OC(F)(F)F)cc3)n2)cc1 [F33, 1-(2-Isopropylphenyl)-3-(4-(1-(4-(trifluoromethoxy)phenyl)-1H-1,2,4-triazol-3-yl)phenyl)urea]
[1]
  mortality at 50 µg/cm2: 50 to 100%
[2]
  mortality at 50 µg/cm2: 50 to 100%
[3]
  YFM % Control (or Mortality) rating: B (More than 0 - Less than 80)

## CCOc1cccc(NC(=O)Nc2ccc(-c3ncn(-c4ccc(OC(F)(F)F)cc4)n3)cc2)c1 [F39, 1-(3-ethoxyphenyl)-3-(4-(1-(4-(trifluoromethoxy)phenyl)-1H-1,2,4-triazol-3-yl)phenyl)urea]
[1]
  mortality at 50 µg/cm2: 0%
[2]
  mortality at 50 µg/cm2: 50 to 100%
[3]
  YFM % Control (or Mortality) rating: D (No activity noticed in this bioassay)

## CCc1ccccc1N(C(=O)Nc1ccc(-c2ncn(-c3ccc(OC(F)(F)F)cc3)n2)cc1)C(N)=S [F52, N-(2-Ethylphenyl)-N-(4-{1-[4-(trifluoromethoxy)phenyl]-1H-1,2,4-triazol-3-yl}phenyl)dicarbonimidothioic diamide]
[1]
  mortality at 50 µg/cm2: 50 to 100%
[2]
  mortality at 50 µg/cm2: 50 to 100%

## O=C(NCc1ccc(-c2ncn(-c3ccc(OC(F)(F)F)cc3)n2)cc1)Nc1ccccc1-c1ccccc1 [F70, 1-([1,1′-biphenyl]-2-yl)-3-(4-(1-(4-(trifluoromethoxy)phenyl)-1H-1,2,4-triazol-3-yl)benzyl)urea]
[1]
  mortality at 50 µg/cm2: 50 to 100%
[2]
  mortality at 50 µg/cm2: 50 to 100%

## O=C(NCCCc1ccc(-c2ncn(-c3ccc(OC(F)(F)F)cc3)n2)cc1)Nc1ccc(Cl)cc1 [F79, 1-(4-Chlorophenyl)-3-(3-(4-(1-(4-(trifluoromethoxy)phenyl)-1H-1,2,4-triazol-3-yl)phenyl)propyl)urea]
[2]
  mortality at 50 µg/cm2: 50 to 100%
[3]
  YFM % Control (or Mortality) rating: D (No activity noticed in this bioassay)

## COc1ccc(NC(=O)NCCCc2ccc(-c3ncn(-c4ccc(OC(F)(F)F)cc4)n3)cc2)cc1 [F82, 1-(4-Methoxyphenyl)-3-(3-(4-(1-(4-(trifluoromethoxy)phenyl)-1H-1,2,4-triazol-3-yl)phenyl)propyl)urea]
[2]
  mortality at 50 µg/cm2: 0%
[3]
  YFM % Control (or Mortality) rating: D (No activity noticed in this bioassay)

## Cc1ccc(NC(=O)NCCCc2ccc(-c3ncn(-c4ccc(OC(F)(F)F)cc4)n3)cc2)cc1 [F83, 1-(p-Tolyl)-3-(3-(4-(1-(4-(trifluoromethoxy)phenyl)-1H-1,2,4-triazol-3-yl)phenyl)propyl)urea]
[2]
  mortality at 50 µg/cm2: 0%
[3]
  YFM % Control (or Mortality) rating: D (No activity noticed in this bioassay)

## Cc1cccc(NC(=O)NCCCc2ccc(-c3ncn(-c4ccc(OC(F)(F)F)cc4)n3)cc2)c1 [F87, 1-(m-Tolyl)-3-(3-(4-(1-(4-(trifluoromethoxy)phenyl)-1H-1,2,4-triazol-3-yl)phenyl)propyl)urea]
[2]
  mortality at 50 µg/cm2: 0%
[3]
  YFM % Control (or Mortality) rating: D (No activity noticed in this bioassay)

## Cc1ccccc1NC(=O)NCCCCc1ccc(-c2ncn(-c3ccc(OC(F)(F)F)cc3)n2)cc1 [F89, 1-(o-Tolyl)-3-(4-(4-(1-(4-(trifluoromethoxy)phenyl)-1H-1,2,4-triazol-3-yl)phenyl)butyl)urea]
[1]
  mortality at 50 µg/cm2: 0%
[3]
  YFM % Control (or Mortality) rating: D (No activity noticed in this bioassay)

## Cc1cccc(NC(=O)NCCCCc2ccc(-c3ncn(-c4ccc(OC(F)(F)F)cc4)n3)cc2)c1 [F91, 1-(m-Tolyl)-3-(4-(4-(1-(4-(trifluoromethoxy)phenyl)-1H-1,2,4-triazol-3-yl)phenyl)butyl)urea]
[2]
  mortality at 50 µg/cm2: 0%
[3]
  YFM % Control (or Mortality) rating: D (No activity noticed in this bioassay)

## O=C(NCCCCc1ccc(-c2ncn(-c3ccc(OC(F)(F)F)cc3)n2)cc1)Nc1ccccc1Cl [F92, 1-(2-Chlorophenyl)-3-(4-(4-(1-(4-(trifluoromethoxy)phenyl)-1H-1,2,4-triazol-3-yl)phenyl)butyl)urea]
[2]
  mortality at 50 µg/cm2: 0%
[3]
  YFM % Control (or Mortality) rating: D (No activity noticed in this bioassay)

## COc1cccc(NC(=O)NCCCCc2ccc(-c3ncn(-c4ccc(OC(F)(F)F)cc4)n3)cc2)c1 [F96, 1-(3-Methoxyphenyl)-3-(4-(4-(1-(4-(trifluoromethoxy)phenyl)-1H-1,2,4-triazol-3-yl)phenyl)butyl)urea]
[1]
  mortality at 50 µg/cm2: 0%
[3]
  YFM % Control (or Mortality) rating: D (No activity noticed in this bioassay)

## CCc1ccccc1NC(=O)NCc1ccc(-c2ncn(-c3ccc(OC(F)(F)F)cc3)n2)cc1 [F101, 1-(2-Ethylphenyl)-3-(4-(1-(4-(trifluoromethoxy)phenyl)-1H-1,2,4-triazol-3-yl)benzyl)urea]
[1]
  mortality at 50 µg/cm2: 0%
[3]
  YFM % Control (or Mortality) rating: D (No activity noticed in this bioassay)
